# From US6797255B1, “Methods and compositions for enhancing magnetic resonance imaging” (Mallinckrodt Inc., priority 1985, dated 2004)
# Key:
# [1] = Solubility of the complex in water; type: physicochemical
# Description: (§1) The complex, dihydrogen bis(N-[N′-(2,6-diisopropylphenyl)carbamoylmethyl]iminodiaceto)manganese(II) hydrate, was thus isolated as the hydrated species. The solubility of the complex in water was determined to be approximately 0.1% w/v. The relaxation parameters T1 and T2 of a 10-^−3M solution of the complex in a 90 MHz NMR experiment were determined to be 0.107 sec. and 0.007 sec. respectively. The T1 and T2 values for water are 2.51 sec. and 0.150 sec., respectively.
# (§2) The relaxation parameters T1 and T2 of a 10^−3M solution of the complex in a 90 MHz NMR experiment were determined to be 126 milliseconds and 1.5 milliseconds, respectively.
# [2] = Relaxation parameters T1 and T2 of a 10^−3M solution in a 90 MHz NMR experiment; type: physicochemical; details: 10-^−3M solution
# Description: as §1, §2
# [3] = Toxicity profile of the gadolinium complex; details: in vivo
# liver = assay: T1 and T2 lowering effects of the gadolinium complex in the liver; details: in vivo
structure (smiles),measurement,setting,value
CC(C)c1cccc(C(C)C)c1NC(=O)CN(CC(=O)[O-])CC(=O)O.CC(C)c1cccc(C(C)C)c1NC(=O)CN(CC(=O)[O-])CC(=O)O.O.[Mn+2] [Example 1],solubility of the complex in water,[1],approximately 0.1 % w/v
same,relaxation parameter T1,[2],0.107 s
same,relaxation parameter T2,[2],0.007 s
"Cc1cccc(C)c1NC(=O)CN(CC(=O)[O-])CC(=O)O.Cc1cccc(C)c1NC(=O)CN(CC(=O)[O-])CC(=O)[O-].O.O.[Gd+3] [hydrogen bis(N-[N′-(2,6-dimethylphenyl)carbamoylmethyl]iminodiaceto)gadolinium(III) dihydrate]",LD50,[3],about 0.2 mmol/kg
same,toxicity profile,[3],"persistent, delayed toxicity"
same,T1 and T2 lowering effects in the liver,liver,relatively poor T1 and T2 lowering effects in the liver
